Results taken from patent US20220370545A1, “INTEGRIN RECEPTOR ALPHA V BETA 3 AND ITS LIGAND INVOLVED IN CHRONIC ITCH” (North Carolina State University, priority 2019, published 2022).

B1: periostin: fasciclin extracellular matrix protein, endogenous ligand of integrin αvβ3; mouse recombinant used (protein)
chain: NSYYDKVLAHSRIRGRDQGPNVCALQQILGTKKKYFSSCKNWYQGAICGKKTTVLYECCPGYMRMEGMKGCPAVMPIDHVYGTLGIVGATTTQHYSDVSKLREEIEGKGSYTYFAPSNEAWENLDSDIRRGLENNVNVELLNALHSHMVNKRMLTKDLKHGMVIPSMYNNLGLFINHYPNGVVTVNCARVIHGNQIATNGVVHVIDRVLTQIGTSIQDFLEAEDDLSSFRAAAITSDLLESLGRDGHFTLFAPTNEAFEKLPRGVLERIMGDKVASEALMKYHILNTLQCSEAITGGAVFETMEGNTIEIGCEGDSISINGIKMVNKKDIVTKNGVIHLIDEVLIPDSAKQVIELAGKQQTTFTDLVAQLGLASSLKPDGEYTLLAPVNNAFSDDTLSMDQRLLKLILQNHILKVKVGLSDLYNGQILETIGGKQLRVFVYRTAICIENSCMVRGSKQGRNGAIHIFREIIQPAEKSLHDKLRQDKRFSIFLSLLEAADLKDLLTQPGDWTLFAPTNDAFKGMTSEERELLIGDKNALQNIILYHLTPGVYIGKGFEPGVTNILKTTQGSKIYLKGVNETLLVNELKSKESDIMTTNGVIHVVDKLLYPADIPVGNDQLLELLNKLIKYIQIKFVRGSTFKEIPMTVYRPAMTKIQIEGDPDFRLIKEGETVTEVIHGEPVIKKYTKIIDGVPVEITEKQTREERIITGPEIKYTRISTGGGETGETLQKFLQKEVSKVTKFIEGGDGHLFEDEEIKRLLQGDTPAKKIPANKRVQGPRRRSREGRSQ

Legend:
[1] = tested on: histamine-dependent itch in mice; assay: Histamine-induced itch in mice; format: in vivo, mouse; settings: i.v. cilengitide 100 nM 10 minutes prior to histamine 100 μg/10 μl
Experimental: (§1) All behavioral experiments were conducted during the light cycle at ambient temperature (23° C.). Behavioral assessment of scratching behavior was conducted as described previously (Mishra et al., 2011). Briefly, mice were injected intradermal into the nape of the neck with periostin (R&D), histamine, and chloroquine (all Millipore-Sigma) as previously described (Shimada and LaMotte, 2008). Compounds were diluted in PBS and the same was used as a vehicle. […] Additionally, cilengitide and periostin were combined together (mix) and injected i.d. into the dorsal neck of mouse. Scratching behavior was recorded for 30 minutes and data was presented in bouts per 30 minutes for mice. […] For eye wipes assay, periostin and capsaicin were dropped on mouse cornea and counted wipes for 1-minute. […] For dog's study, periostin (25 μg/25 μl) was injected in the dorsal neck (s.c.) and behavior was recorded and quantified for 30 minutes as “duration of pruritus manifestation” (DPM), as described earlier (Paps et al., 2016). […] When different raters separately scored a single tape, the ratings indicated high interrater reliability (coefficient of correlation, r>0.95). This method of itch readout in NHP has been used and accepted (Ko and Naughton, 2000). The behavior was recorded for 30 minutes duration and number of scratches quantified. […]

[2] = tested on: MC903-induced spontaneous chronic itch in mice; assay: MC903-induced mouse model of atopic dermatitis, spontaneous scratching; format: in vivo; settings: cilengitide 100 nM by tail vein injection, Day 10
Experimental: C57BL6 mice (Jackson Labs, Ellsworth, Maine, United States of America) were applied daily with MC903 (4 nmol) and vehicle (97% ethanol) after brief anesthesia. Skin thickness was measured using cutimeter as described (Fukuyama et al., 2015). Scratching behavior was video-monitored for 30 min on Day 1 and Day 7. On Day 7 skin was collected from vehicle and MC903 treated mice for the Western Blot (WB) as described below. NC/Nga mice (Charles River, Yokohama, Japan) were sensitized and challenged with house dust mite (HDM) allergen (Dermatophagoides farina, Greer, Lenoir, N.C., United States of Amercia) as described previously (Fukuyama et al., 2018). […] Scratching behavior was video monitored for 60 min period immediately after HDM on day 42. […] The amount of periostin was determined using ELISA according to the manufacturer's instruction.
A mouse model of atopic dermatitis in mice is generated. […] At Day 10, vehicle or the compound (at least one dose) is administered intravenous/orally to the animals, and then measured the scratching behaviors for at least 60 min. In order to see the sub-chronic effect of the compound, vehicle and the compound is administered to MC903-treated animals for several days and the alteration of the scratching behaviors is measured.

[3] = tested on: non-histamine dependent (CQ) itch in mice; assay: Chloroquine (CQ)-induced itch in mice; format: in vivo, mouse; settings: i.v. cilengitide 100 nM 10 minutes prior to CQ 100 μg/10 μl
Experimental: as §1

[4] = tested on: monkeys; assay: Periostin injection in monkeys, number of scratches; format: in vivo, monkey; settings: mouse recombinant periostin 25 μg/100 μl subcutaneously, thigh, within 15 minutes
Experimental: as §1

[5] = tested on: mouse cornea; assay: Eye wipes assay (corneal application); format: in vivo; settings: wild-type mice, wiping measured for 1 minute
Experimental: as §1

[6] = tested on: BMMC mast cells; assay: Calcium imaging on mast cells; format: cell-based, mouse; settings: mast cells stimulated with periostin alone
Experimental: Changes in cytosolic Ca^2+ were assayed using ratiometric Fura-2 AM measurements as described (Cruse et al., 2013). Fluorescence was measured at two excitation wavelengths (340 and 380 nm) and an emission wavelength of 510 nm using a BioTek Neo2 multimode plate reader (BioTek, Winooski, Vt., United States of America). The ratio of fluorescence readings was calculated following subtraction of background fluorescence of cells not loaded with Fura-2 AM.

Molecule	histamine-induced itch (scratching bouts per 30 minutes) [1]	MC903-induced spontaneous itching [2]	CQ-induced itch (scratching bouts per 30 minutes) [3]	itch after periostin injection in monkeys [4]	eye-wiping response to ocular application [5]	calcium release in mast cells [6]
CC(C)[C@H]1C(=O)N[C@@H](CCCN=C(N)N)C(=O)NCC(=O)N[C@@H](CC(=O)O)C(=O)N[C@H](Cc2ccccc2)C(=O)N1C [cilengitide, cyclo RGDf-n(Me)V]	inhibits	significantly reduced	inhibits			
B1				robust scratching	No eye-wiping response	no periostin-dependent change in calcium release
